Assays:
Histone deacetylase 3 = Histone deacetylase 3 (Homo sapiens, UniProt O15379); assay: Inhibition of human recombinant HDAC3 using ArgHisLysLys(Ac) as substrate by fluorescence based analysis
Histone deacetylase 8 = molecular target: T1, Histone deacetylase 8 (Homo sapiens, UniProt Q9BY41); assay: Inhibition of human recombinant HDAC8 using ArgHisLysLys(Ac) as substrate by fluorescence based analysis
T1 sequence (Q9BY41 whole entry): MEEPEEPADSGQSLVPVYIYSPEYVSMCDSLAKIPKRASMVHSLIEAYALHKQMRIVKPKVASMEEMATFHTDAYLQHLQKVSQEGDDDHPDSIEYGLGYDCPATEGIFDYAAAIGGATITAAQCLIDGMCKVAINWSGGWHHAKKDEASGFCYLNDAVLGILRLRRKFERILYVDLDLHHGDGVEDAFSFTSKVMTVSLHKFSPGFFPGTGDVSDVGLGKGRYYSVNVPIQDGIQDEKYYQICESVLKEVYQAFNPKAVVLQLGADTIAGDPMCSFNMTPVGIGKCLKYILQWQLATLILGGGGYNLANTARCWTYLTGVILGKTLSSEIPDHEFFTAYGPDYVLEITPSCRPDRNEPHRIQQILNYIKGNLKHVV

[1] = molecular target: T2, Polyamine deacetylase HDAC10 (Homo sapiens, UniProt Q969S8); assay: Inhibition of human recombinant HDAC10 using ArgHisLysLys(Ac) as substrate by fluorescence based analysis
T2 sequence (Q969S8 whole entry): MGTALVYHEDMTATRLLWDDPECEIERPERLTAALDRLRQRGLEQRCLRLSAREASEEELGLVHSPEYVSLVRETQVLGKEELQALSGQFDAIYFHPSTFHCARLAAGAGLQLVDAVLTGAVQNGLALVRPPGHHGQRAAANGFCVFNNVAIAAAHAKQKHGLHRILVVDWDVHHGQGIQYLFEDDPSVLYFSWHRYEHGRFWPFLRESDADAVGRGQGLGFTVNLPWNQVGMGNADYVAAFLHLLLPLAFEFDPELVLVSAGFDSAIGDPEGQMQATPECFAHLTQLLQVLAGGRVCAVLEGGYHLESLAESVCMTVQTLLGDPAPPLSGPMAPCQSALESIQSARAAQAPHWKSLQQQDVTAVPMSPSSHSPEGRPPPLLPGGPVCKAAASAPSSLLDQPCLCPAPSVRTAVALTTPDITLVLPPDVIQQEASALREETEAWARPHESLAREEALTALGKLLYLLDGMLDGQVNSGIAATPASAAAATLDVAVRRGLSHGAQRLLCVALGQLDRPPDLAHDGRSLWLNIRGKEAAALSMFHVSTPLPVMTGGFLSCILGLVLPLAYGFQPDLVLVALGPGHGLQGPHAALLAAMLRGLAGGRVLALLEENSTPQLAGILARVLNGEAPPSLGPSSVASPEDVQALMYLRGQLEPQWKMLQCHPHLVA

Histone deacetylase 11 = molecular target: T3, Histone deacetylase 11 (Homo sapiens, UniProt Q96DB2); assay: Inhibition of human recombinant HDAC11 using ArgHisLysLys(Ac) as substrate by fluorescence based analysis
T3 sequence (Q96DB2 whole entry): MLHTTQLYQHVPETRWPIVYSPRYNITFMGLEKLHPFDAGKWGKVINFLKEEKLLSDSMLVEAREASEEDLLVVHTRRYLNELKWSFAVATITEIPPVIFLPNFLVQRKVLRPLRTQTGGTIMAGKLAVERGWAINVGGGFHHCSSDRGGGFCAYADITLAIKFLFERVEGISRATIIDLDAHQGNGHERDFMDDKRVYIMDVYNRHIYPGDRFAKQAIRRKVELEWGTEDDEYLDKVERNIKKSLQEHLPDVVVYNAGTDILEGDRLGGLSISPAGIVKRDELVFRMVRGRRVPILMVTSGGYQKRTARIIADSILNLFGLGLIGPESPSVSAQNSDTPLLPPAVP

Measured: IC50

Chain of Histone deacetylase 3 (O15379 whole entry): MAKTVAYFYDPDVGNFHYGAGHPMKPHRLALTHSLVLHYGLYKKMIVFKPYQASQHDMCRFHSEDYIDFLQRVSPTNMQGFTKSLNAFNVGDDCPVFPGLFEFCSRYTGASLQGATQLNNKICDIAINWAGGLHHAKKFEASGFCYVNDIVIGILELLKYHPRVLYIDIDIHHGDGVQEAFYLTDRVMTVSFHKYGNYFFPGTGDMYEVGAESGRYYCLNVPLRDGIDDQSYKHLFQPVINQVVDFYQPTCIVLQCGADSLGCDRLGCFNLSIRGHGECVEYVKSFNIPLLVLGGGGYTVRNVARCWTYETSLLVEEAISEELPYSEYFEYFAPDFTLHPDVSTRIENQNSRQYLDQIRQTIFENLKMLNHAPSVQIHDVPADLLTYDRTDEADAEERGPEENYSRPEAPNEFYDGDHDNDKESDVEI

Nc1ccccc1N1CC(CCCCCC(=O)Nc2ccccc2)C1=O (stereo unspecified)
> 1000 µM: all assays above

O=C(CCCCC[C@@H]1CN(O)C1=O)Nc1ccccc1
> 1000 µM: all assays above

O=C(CCCCCC1CNC1=O)Nc1ccccc1 (stereo unspecified)
> 1000 µM: all assays above

O=C(CCCCC[C@H]1CN(O)C1=O)Nc1ccccc1
> 1000 µM: all assays above
